Several values for one entry are separate records, joined by “and”; a condition that tells them apart may be missing. Identical values can stand only once.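 How tested: cells in 96-well plates exposed to compound for 48 hours at five concentrations. GI50 marks 50% less growth. The concentration for full growth arrest is given as TGI.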
How the values were obtained:
Test in all cases: NCI anticancer screen, dose series, 48 h
CCRF-CEM leukemia = test system: CCRF-CEM leukemia
HCC-2998 colon = test system: HCC-2998 colon
HCT-15 colon = test system: HCT-15 colon
HOP-62 NSCLC = test system: HOP-62 NSCLC
HS 578T breast = test system: HS 578T breast
HT29 colon = test system: HT29 colon
IGROV1 ovarian = test system: IGROV1 ovarian
MDA-MB-231 breast = test system: MDA-MB-231 breast
OVCAR-3 ovarian = test system: OVCAR-3 ovarian
RXF 393 renal = test system: RXF 393 renal

SMILES	TGI (CCRF-CEM leukemia) [µM]	GI50 (HCC-2998 colon) [µM]	TGI (HCC-2998 colon)	GI50 (HCT-15 colon) [µM]	TGI (HCT-15 colon)	TGI (HOP-62 NSCLC)	TGI (HS 578T breast) [µM]	GI50 (HT29 colon) [µM]	TGI (HT29 colon)	TGI (IGROV1 ovarian) [µM]	TGI (MDA-MB-231 breast) [µM]	TGI (OVCAR-3 ovarian)	GI50 (RXF 393 renal) [µM]	TGI (RXF 393 renal)	GI50 (HOP-62 NSCLC) [µM]	GI50 (IGROV1 ovarian) [µM]	GI50 (MDA-MB-231 breast) [µM]	GI50 (OVCAR-3 ovarian) [µM]	GI50 (CCRF-CEM leukemia) [µM]	GI50 (HS 578T breast) [µM]
NC(CS)C(=O)NCCNc1ccc(NCCNC(=O)C(N)CS)c2c1C(=O)c1c(O)ccc(O)c1C2=O (stereo not given)	0.517	0.196	1.13 µM and 0.822 µM	0.0384	0.864 µM and 0.584 µM	0.03 µM and 0.0483 µM	0.615	0.0454	1.08 µM and 0.689 µM	1.47	1.62	1.76 µM and 1.58 µM	0.103	0.554 µM and 0.455 µM	–	–	–	–	–	–
CC1(C)OC2OC(C(=O)c3ccccc3)C3OC(C)(C)OC3C2O1 (stereo not given)	> 100	–	> 100 µM	–	> 100 µM	> 100 µM	> 100	–	–	> 100	> 100	> 100 µM	–	> 100 µM	–	–	–	–	–	–
Cc1sc2nc3n(c(=O)c2c1C)N=C(c1ccccc1)CS3	> 100	–	> 100 µM	–	> 100 µM	> 100 µM	> 100	–	> 100 µM	> 100	> 100	> 100 µM	–	> 100 µM	–	–	–	–	–	–
O=C1CCc2ccccc2O1	> 100	–	> 100 µM	–	> 100 µM	> 100 µM	> 100	–	> 100 µM	> 100	> 100	> 100 µM	–	> 100 µM	–	–	–	–	–	–
CC(C)(/C=N/O)/[N+]([O-])=C/c1ccccc1	–	–	> 100 µM	–	> 100 µM	> 100 µM	> 100	–	> 100 µM	> 100	> 100	> 100 µM	–	> 100 µM	–	–	–	–	–	–
CCOC(=O)c1cc([N+](=O)[O-])cc([N+](=O)[O-])c1Sc1ncnc2nc[nH]c12	6.84	–	30.2 µM	–	19.7 µM	24.5 µM	71.2	–	15.3 µM	6.13	24.9	2.45 µM	–	3.29 µM	–	–	–	–	–	–
N#CCN1CCCN(CC#N)CCN(CC#N)CCCN(CC#N)CC1	> 100	–	> 100 µM	–	–	> 100 µM	> 100	–	–	> 100	> 100	> 100 µM	–	> 100 µM	–	–	–	–	–	–
N#CC(C#N)C1CN2CCC1CC2 (stereo not given)	> 100	–	> 100 µM	–	> 100 µM	> 100 µM	> 100	–	> 100 µM	> 100	> 100	> 100 µM	–	> 100 µM	–	–	–	–	–	–
CON(C(=O)OC(C)(C)C)c1ccccc1	> 100	–	> 100 µM	–	> 100 µM	> 100 µM	> 100	–	> 100 µM	> 100	> 100	> 100 µM	–	> 100 µM	–	–	–	–	–	–
CC1(C)OC2[C@@H](CO[C@@]3([C@H]4OC(C)(C)O[C@@H]4CO)OC(C)(C)O[C@@H]23)O1 (stereo not given in full)	> 100	–	> 100 µM	–	> 100 µM	> 100 µM	> 100	–	> 100 µM	> 100	> 100	> 100 µM	–	> 100 µM	–	–	–	–	–	–
O=C1c2c(F)c(F)c(F)c(F)c2SC2=Nc3cccc4cccc(c34)N12	> 25.1	–	28.5 µM	–	14.8 µM	27.2 µM	7.73	–	21.4 µM	24.1	11.7	7.58 µM	–	11.1 µM	–	–	–	–	–	–
Clc1ccc(Nc2nnc(CNc3ccc(-c4nnc(Nc5ccc(Cl)cc5)o4)cc3)o2)cc1	> 100	–	27.8 µM	–	35.4 µM	35.1 µM	36.7	–	33.1 µM	30.4	25.4	23.9 µM	–	34.6 µM	–	–	–	–	–	–
COc1cc2c(cc1OC)-c1[nH]c3ccc([N+](=O)[O-])cc3c1CC(=O)N2	> 37.6	–	5.6 µM	–	> 100 µM	9.81 µM	> 100	–	> 100 µM	> 100	> 100	1.61 µM	–	4.82 µM	–	–	–	–	–	–
COc1cc(O)c2c(=O)c(OC)c(-c3ccc(OC)c(OC)c3)oc2c1.[Sn]	–	> 100	> 100 µM	–	–	> 100 µM	> 100	> 100	> 100 µM	> 100	> 100	> 100 µM	–	> 100 µM	> 100	> 100	> 100	> 100	–	–
COc1cc(C2c3cc4c(cc3OC(NNc3ccccc3)C2C)OCO4)cc(OC)c1O (stereo not given)	21.3	–	2.87 µM	–	11.9 µM	33.1 µM	12	–	16.7 µM	24.6	8.53	14.8 µM	–	13.7 µM	–	–	–	–	–	–
CC(=O)CC12NC(=O)N(C)N=C1N(C)C(=O)N(C)C2=O (stereo not given)	> 100	–	> 100 µM	–	> 100 µM	> 100 µM	> 100	–	> 100 µM	> 100	> 100	> 100 µM	–	> 100 µM	–	–	–	–	–	–

SMILES	TGI (CCRF-CEM leukemia) [µM]	GI50 (HCC-2998 colon) [µM]	TGI (HCC-2998 colon)	GI50 (HCT-15 colon) [µM]	TGI (HCT-15 colon)	TGI (HOP-62 NSCLC)	TGI (HS 578T breast) [µM]	GI50 (HT29 colon) [µM]	TGI (HT29 colon)	TGI (IGROV1 ovarian) [µM]	TGI (MDA-MB-231 breast) [µM]	TGI (OVCAR-3 ovarian)	GI50 (RXF 393 renal) [µM]	TGI (RXF 393 renal)	GI50 (HOP-62 NSCLC) [µM]	GI50 (IGROV1 ovarian) [µM]	GI50 (MDA-MB-231 breast) [µM]	GI50 (OVCAR-3 ovarian) [µM]	GI50 (CCRF-CEM leukemia) [µM]	GI50 (HS 578T breast) [µM]
N#Cc1c(O)c(C=O)c(=O)n2c1[nH]c1ccccc12	> 100	–	> 100 µM	–	> 100 µM	> 100 µM	> 100	–	> 100 µM	> 100	> 100	> 100 µM	–	> 100 µM	–	–	–	–	–	–
O=C1C(=O)N(C23CC4CC(CC(C4)C2)C3)C(=S)N1c1ccccc1	> 100	–	> 100 µM	–	> 100 µM	> 100 µM	> 100	–	> 100 µM	> 100	> 100	–	–	> 100 µM	–	–	–	–	–	–
CCOC(=O)C(NC(=O)c1ccccc1)(Nc1ccc(S(=O)(=O)Nc2ccc(OC)nn2)cc1)C(F)(F)F (stereo not given)	> 100	–	> 100 µM	–	> 100 µM	> 100 µM	> 100	–	> 100 µM	> 100	> 100	> 100 µM	–	> 100 µM	–	–	–	–	–	–
O=[N+]([O-])c1ccc2c(N=Nc3ccc4ccccc4c3O)c(O)cc(S(=O)(=O)O)c2c1	22	–	> 100 µM	–	> 100 µM	99.7 µM	> 100	–	> 100 µM	> 61.9	> 100	99.5 µM	–	> 100 µM	–	–	–	–	–	–
CCOC(=O)[C@H](CO)Nc1c(O)c2c(c(O)c1Cl)C(=O)C=CC2=O	> 10	–	> 10 µM	–	> 10 µM	> 10 µM	> 10	–	> 10 µM	> 10	> 10	> 10 µM	–	> 10 µM	–	–	–	–	–	–
COc1cc(/C=C/c2ccc(S(N)(=O)=O)cc2)cc(OC)c1	52.3	–	38.1 µM	17.4	53.5 µM	62.7 µM	48.5	16.2	33.2 µM	45.5	46.6	33.2 µM	–	34.1 µM	–	23.1	–	–	19.9	20.1
O=C(NCCC1CN(S(=O)(=O)C(F)(F)F)c2ccccc21)OCc1ccccc1 (stereo not given)	> 100	–	> 100 µM	–	> 100 µM	> 100 µM	> 100	–	> 100 µM	> 100	> 100	> 100 µM	–	> 100 µM	–	–	–	–	–	–
CCN(CCN(CC)C(=O)NC)C(=O)NC	> 100	–	> 100 µM	–	> 100 µM	> 100 µM	> 100	–	> 100 µM	> 100	> 100	–	–	> 100 µM	–	–	–	–	–	–
COc1ccc(Oc2nc3c(N)cc(C(F)(F)F)cc3nc2-c2ccccc2)cc1	> 100	–	> 100 µM	–	> 100 µM	49.5 µM	43	–	22.8 µM	43.5	> 100	–	–	24.9 µM	–	–	–	–	–	–
COc1c(C)c(C/C=C(\C)CCCCO)c(OC)c2ccccc12	63	–	62.5 µM	–	> 100 µM	–	> 100	–	43.7 µM	> 100	> 100	> 100 µM	–	> 100 µM	–	–	–	–	–	–
CCOP(=O)(OCC)C(C)(CC)/N=C(\N)NC#N (stereo not given)	> 100	–	> 100 µM	–	> 100 µM	> 100 µM	> 100	–	> 100 µM	> 100	> 100	> 100 µM	–	> 100 µM	–	–	–	–	–	–
CCOC(=O)[C@@]12NN=N[C@@H]1[C@H]1CO[C@H](c3ccccc3)N1C2=O	> 100	–	25.7 µM	–	32.9 µM	30.6 µM	17.8	–	32.4 µM	20.3	30.6	24.5 µM	–	13.9 µM	–	–	–	–	–	–
O=C(NCCCc1cn[nH]c(=O)n1)c1cccc2nc3ccccc3nc12	> 100	–	> 100 µM	–	> 100 µM	> 100 µM	> 100	–	> 100 µM	> 100	> 100	> 100 µM	–	> 100 µM	–	–	–	–	–	–
NCCN(CCN)/[N+]([O-])=N/O	> 100	–	> 100 µM	–	> 100 µM	> 100 µM	> 100	–	> 100 µM	> 100	> 100	> 100 µM	–	> 100 µM	–	–	–	–	–	–
CC(=O)OC12OC(C)(C3C(=O)N(c4ccccc4)C(=O)C31)N(c1ccccc1)C2=O (stereo not given)	> 100	–	> 100 µM	–	> 100 µM	> 100 µM	> 100	–	> 100 µM	> 100	> 100	> 100 µM	–	> 100 µM	–	–	–	–	–	–

From PubChem BioAssay (NCI)
